Source: patent US20080153792A1, “Drug Identification and Treatment Method” (priority 2006, published 2008)
Entries after “also recorded” stand apart in the source; their conditions may differ. Like-named read-outs stand apart in the source and are kept apart here.

Assays:
NF-κB = assay: NF-κB-bla THP-1 β-lactamase reporter assay; assay type: cell-based, human
[1] = tested on: CD1 male mice, carrageenan-λ induced pleurisy; assay: carrageenan-λ induced lung (pleural cavity) inflammation in mice; assay type: in vivo, mouse; settings: for number of neutrophils relative to untreated carrageenan-λ control (100%): 4 h after carrageenan
MG-63 cells = assay: reversal of glucocorticoid effects in MG-63 osteosarcoma cells; assay type: cell-based, human
female SJL mice, EAE = assay: experimental autoimmune encephalomyelitis (EAE), PLP-induced, Example 23; assay type: in vivo, mouse; settings: for course of EAE compared to vehicle-treated mice: 0.1 mg q.d. po from clinical onset; for mean cumulative score, treatment period (day 1 to 30): vehicle 24.8±7.8; for mean cumulative score, follow-up period (day 31 to day 54): vehicle 22.7±15.8
[2] = Homo sapiens, THP-1, read-out: IC50, this protocol
[3] = anti-inflammatory activity in this protocol, read-out: IC50
[4] = 0.1 mg q.d. po from clinical onset to day 30
[5] = Homo sapiens, THP-1, read-out: IC50 for inhibition of NF-κB activation, after LPS stimulation, 50% of the maximum inhibition the compound can induce, averages of 2-4 assays
[6] = compounds increased NF-κB activity, read-out: IC50 of compounds that increased NF-κB activity

## C[C@]12CC[C@H]3[C@@H](CCC4C[C@H](O)CC[C@@]43C)[C@@H]1C[C@@H](O)[C@@H]2O (stereo partly drawn) [3α,16α,17β-trihydroxyandrostane]
NF-κB; [2]
  IC50: 6.9 µM

## C[C@]12CC[C@H]3[C@@H](CCC4C[C@H](O)CC[C@@]43C)[C@@H]1C[C@H](O)[C@@H]2O (stereo partly drawn) [3α,16β,17β-trihydroxyandrostane]
NF-κB; [2]
  IC50: 19 µM
[1]; 0.001 mg s.c. 24 h and 1 h before carrageenan-λ
  number of neutrophils relative to untreated carrageenan-λ control (100%): 95%
[1]; 0.01 mg s.c. 24 h and 1 h before carrageenan-λ
  number of neutrophils relative to untreated carrageenan-λ control (100%): 50%
[1]; 0.1 mg and 0.01 mg doses s.c.
  number of neutrophils in the pleura: significant reduction
[1]; 0.1 mg s.c. 24 h and 1 h before carrageenan-λ
  number of neutrophils relative to untreated carrageenan-λ control (100%): 42%

## C[C@]12CC[C@H]3[C@@H](CCC4=C[C@H](O)CC[C@@]43C)[C@@H]1CC[C@@H]2O [3α,17β-dihydroxyandrost-4-ene]
MG-63 cells; similar protocols
  dexamethasone induced 11β-HSD mRNA: decrease
  reversal of dexamethasone-induced suppression of IL-8 and IL-6: statistically significant reversal

## CC12CCC(O)(C(F)(F)C(F)(F)F)C=C1CCC1C2CCC2(C)C(O)CCC12 (stereo not drawn) [3α-pentafluoroethylandrost-4-ene-3β,17β-diol]
NF-κB; [3]
  IC50: 0.0031 µM

## C[C@]12CC[C@H]3[C@@H](CC=C4C[C@](O)(C(F)(F)C(F)(F)F)CC[C@@]43C)[C@@H]1CC[C@@H]2O [3α-pentafluoroethylandrost-5-ene-3β,17β-diol]
NF-κB; [3]
  IC50: 0.017 µM
NF-κB; this protocol
  maximum NF-κB inhibition: 50%

## C[C@]12CC[C@H]3[C@@H](CC=C4C[C@](O)(C(F)(F)F)CC[C@@]43C)[C@@H]1CC[C@@H]2O [3α-trifluoromethylandrost-5-ene-3β,17β-diol]
Female SJL mice, EAE
  course of EAE compared to vehicle-treated mice: significantly improved course of EAE
Female SJL mice, EAE; [4]
  mean cumulative score, treatment period (day 1 to 30): 11.2±4.8
Female SJL mice, EAE; after end of treatment
  mean cumulative score, follow-up period (day 31 to day 54): 10.8±10.3

## C[C@]12CC[C@H]3[C@@H]([C@H](O)C=C4C[C@@H](O)CC[C@@]43C)[C@@H]1CC[C@@H]2O [3β,7α,17β-trihydroxyandrost-5-ene]
NF-κB; [5]
  IC50: > 10 µM

## C[C@]12C[C@H](O)[C@H]3[C@@H]([C@@H](O)C=C4C[C@@H](O)CC[C@@]43C)[C@@H]1CC[C@@H]2O [3β,7β,11β,17β-tetrahydroxyandrost-5-ene]
NF-κB; [5]
  IC50: > 10 µM

## C[C@]12CC[C@H](O)CC1=C[C@H](O)[C@@H]1[C@@H]2CC[C@@]2(C)[C@H]1CC[C@]2(C)O [3β,7β,17β-trihydroxy-17α-methylandrost-5-ene]
MG-63 cells; 10 nM compound
  osteoprotegerin levels in the presence of 30 nM dexamethasone: normal osteoprotegerin levels

## CC12CCC(O)CC1=CC(O)C1C2CCC2(C)C1CCC2(O)C(F)(F)F (stereo not drawn) [3β,7β,17β-trihydroxy-17α-trifluoromethylandrost-5-ene]
NF-κB; after LPS stimulation, 50% of the maximum inhibition the compound can induce, averages of 2-4 assays, read-out: IC50 for inhibition of NF-κB activation
  IC50: > 10 µM
MG-63 cells; 1 μM compound
  osteoprotegerin levels in the presence of 30 nM dexamethasone: normal or basal osteoprotegerin levels

## C[C@]12CC[C@H](O)CC1=CC[C@@H]1[C@@H]2[C@H](O)C[C@]2(C)C(=O)CC[C@@H]12 [3β,11α-dihydroxy-17-oxoandrost-5-ene]
NF-κB; [5]
  IC50: > 10 µM

## C[C@]12CC[C@H]3[C@@H](CC=C4C[C@@H](O)CC[C@@]43C)[C@@H]1CC[C@H]2O [3β,17α-dihydroxyandrost-5-ene]
NF-κB; [2]
  IC50: > 10 µM

## C[C@@]1(O)CC[C@@]2(C)[C@@H](CC[C@@H]3[C@@H]2CC[C@@]2(C)[C@H]3CC[C@]2(C)O)C1 [3β,17α-dimethylandrostane-3α,17β-diol]
NF-κB; [6]
  IC50: 0.04 µM

## CC(=O)O[C@H]1CC[C@@]2(C)C(=C[C@H](O)[C@H]3[C@@H]4CC[C@H](O)[C@@]4(C)CC(=O)[C@@H]32)C1 [3β-acetoxy-7β,17β-dihydroxy-11-oxoandrost-5-ene]
NF-κB; [2]
  IC50: 1 µM
NF-κB; this protocol
  maximum NF-κB inhibition: 65%

## C[C@]12CC[C@H]3[C@@H](CCC4C[C@@H](C(=O)CN)CC[C@@]43C)[C@@H]1CC[C@@H]2O (stereo partly drawn) [3β-glycylandrostane-17β-ol]
NF-κB; Homo sapiens, THP-1, read-out: IC50, anti-inflammatory activity in this protocol
  IC50: 0.001 µM

## C[C@]12CC[C@H](O)CC1CC(=O)[C@@H]1[C@@H]2CC[C@]2(C)C(=O)CC[C@@H]12 (stereo partly drawn) [3β-hydroxyandrostane-7,17-dione]
NF-κB; [2]
  IC50: > 10 µM

## C[C@]12CC[C@H](O)C[C@@H]1CC[C@@H]1[C@@H]2CC[C@]2(C)[C@@H](O)C(=NO)C[C@@H]12 [5α-androstane-3β,17β-diol-16-oxime]
Female SJL mice, EAE
  course of EAE compared to vehicle-treated mice: very similar to that observed in the vehicle-treated mice

## CC(=O)O[C@@H]1C[C@H]2[C@@H]3[C@@H](O)C=C4C[C@@H](O)CC[C@]4(C)[C@H]3CC[C@]2(C)[C@H]1O [16α-acetoxy-3β,7β,17β-trihydroxyandrost-5-ene]
NF-κB; Homo sapiens, THP-1, after LPS stimulation, 50% of the maximum inhibition the compound can induce, averages of 2-4 assays, read-out: IC50 for inhibition of NF-κB activation
  IC50: > 10 µM

## C[C@]12CC[C@H]3[C@@H](CC=C4C[C@@H](O)CC[C@@]43C)[C@@H]1C[C@@H](Br)[C@@H]2O [16α-bromo-3β,17β-dihydroxyandrost-5-ene]
NF-κB; [2]
  IC50: > 10 µM

## C[C@]12CCCCC1=CC[C@@H]1[C@@H]2CC[C@]2(C)C(=O)[C@H](F)C[C@@H]12 [16α-fluoroandrost-5-ene-17-one]
NF-κB; [2]
  IC50: 30 µM

## C[C@]12CCCCC1CC[C@@H]1[C@@H]2CC[C@]2(C)C(=O)[C@H](F)C[C@@H]12 (stereo partly drawn) [16α-fluoroandrostane-17-one]
NF-κB; [2]
  IC50: > 10 µM

## C[C@]12CC[C@H](O)CC1=CC[C@@H]1[C@@H]2CC[C@]2(C)C(=O)[C@@H](Br)C[C@@H]12 [16β-bromo-3β-hydroxyandrost-5-ene-17-one]
NF-κB; [2]
  IC50: > 10 µM

## C[C@]12CC[C@H](O)C[C@@H]1CC[C@@H]1[C@@H]2CC[C@]2(C)C(=O)[C@@H](Br)C[C@@H]12 [16β-bromoepiandrosterone]
NF-κB; this protocol
  maximum NF-κB inhibition: 100%

## C[C@]12CCCCC1=C[C@H](O)[C@@H]1[C@@H]2CC[C@]2(C)C(=O)[C@@H](F)C[C@@H]12 [16β-fluoroandrost-5-ene-7β-ol-17-one]
NF-κB; [3]
  IC50: 0.0015 µM

## C#C[C@]1(O)CC[C@H]2[C@@H]3CCC4=CC(=O)CC[C@]4(C)[C@H]3CC[C@@]21C [17α-ethynylandrost-4-ene-3-one-17β-ol]
NF-κB; this protocol
  maximum NF-κB inhibition: 80%
NF-κB; this protocol, read-out: IC50
  IC50: 2.9 µM

## C[C@]12CC[C@H](O)CC1=CC[C@@H]1[C@@H]2CC[C@@]2(C)[C@H]1CC[C@@]2(O)C(F)(F)F [17α-trifluoromethylandrost-5-ene-3β,17β-diol]
Female SJL mice, EAE
  course of EAE compared to vehicle-treated mice: significantly improved course of EAE

## CC12CCC(O)CC1CCC1C2CCC2(C)C1CCC2(O)C(F)(F)F (stereo not drawn) [17α-trifluoromethylandrostane-3α,17β-diol]
NF-κB; [3]
  IC50: 0.19 µM

## C#C[C@@]1(O)CC[C@H]2[C@@H]3[C@@H](O)C=C4C[C@@H](O)CC[C@]4(C)[C@H]3CC[C@@]21C [17β-ethynylandrost-5-ene-3β,7β,17α-triol]
Female SJL mice, EAE; 0.1 mg q.d. po
  EAE incidence at the end of the treatment period: 57.1%
Female SJL mice, EAE
  course of EAE compared to vehicle-treated mice: trend toward reduced cumulative score and duration
Female SJL mice, EAE; 0.1 mg q.d. po from clinical onset to day 30, vehicle 12.3±4.3
  duration of the disease: 7 ± 7.9 days
Female SJL mice, EAE; [4]
  mean cumulative score, treatment period (day 1 to 30): 14.9±17.6
Female SJL mice, EAE; after end of treatment
  EAE incidence at the end of the follow-up period: 85.7%
  mean cumulative score, follow-up period (day 31 to day 54): 18.4±20.6

## C[C@]12CC[C@H]3[C@@H](CCC4C[C@@H](O)CC[C@@]43C)[C@@H]1CC[C@@H]2C(=O)CN (stereo partly drawn) [17β-glycylandrostane-3β-ol]
NF-κB; [2]
  IC50: 0.42 µM

## Cc1cc(C)c(/C=C2\C(=O)Nc3ccccc32)[nH]1 [SU5416, Z-3-[(2,4-dimethylpyrrol-5-yl)methylidenyl]-2-indolinone, reference compound]
Female SJL mice, EAE
  course of EAE compared to vehicle-treated mice: very similar to that observed in the vehicle-treated mice; also recorded: ineffective
Female SJL mice, EAE; [4]
  mean cumulative score, treatment period (day 1 to 30): 25.5±8.9
Female SJL mice, EAE; after end of treatment
  mean cumulative score, follow-up period (day 31 to day 54): 35.5±13.2

## C[C@]12CC[C@H]3[C@@H](CC=C4C[C@H](O)CC[C@@]43C)[C@@H]1CC[C@@H]2O [androst-5-ene-3α,17β-diol]
NF-κB; [2]
  IC50: > 10 µM

## C[C@]12CC[C@H](O)CC1=C[C@@H](O)[C@@H]1[C@@H]2CC[C@]2(C)C(=O)[C@H](O)C[C@@H]12 [androst-5-ene-3β,7α,16α-triol-17-one]
NF-κB; compound increased NF-κB activity
  NF-κB activity compared to control cells: 140%
NF-κB; [6]
  IC50: 0.0013 µM

## C[C@]12CC[C@H]3[C@@H](C(=NO)C=C4C[C@@H](O)CC[C@@]43C)[C@@H]1CC[C@@H]2O [androst-5-ene-3β,17β-diol-7-oxime]
MG-63 cells; concentration not given
  reversal of the decrease in osteoprotegerin in the presence of 30 nM dexamethasone: partially reversed

## C[C@]12C[C@H](O)[C@H]3[C@@H](CC=C4C[C@@H](O)CC[C@@]43C)[C@@H]1CC[C@@H]2O [androst-5-ene-3β, 11β,17β-triol]
NF-κB; [2]
  IC50: > 10 µM

## C[C@]12CC[C@H]3[C@@H](CC=C4C[C@@H](O)CC[C@@]43C)[C@@H]1CC[C@@H]2OC(=O)CCC(=O)O [androst-5-ene-3β-ol-17β-succinyl ester]
NF-κB; [3]
  IC50: 0.0002 µM

## C[C@]12CC[C@H](O)CC1CC[C@@H]1[C@@H]2CC[C@]2(C)C(=NO)[C@@H](O)C[C@@H]12 (stereo partly drawn) [androstane-3β,16β-diol-17-oxime]
NF-κB; this protocol, read-out: IC50
  IC50: 1.9 µM

## TNFα
NF-κB; positive control assays, 1 hour β-lactamase substrate incubation
  EC50 for activation of NF-κB: 0.20 ng/mL
